Where two headings read alike, the source gives them in different places.
Legend:
human FXR (NR1H4) = molecular target: T1, human FXR (NR1H4) (Homo sapiens, UniProt Q96RI1); experiment: Human FXR (NR1H4) agonist assessment, FXRE-NanoLuc reporter in HEK293T cells; type: cell-based; details: for EC50: read-out: EC50
T1 sequence (Q96RI1 1-476 isoform Q96RI1-1): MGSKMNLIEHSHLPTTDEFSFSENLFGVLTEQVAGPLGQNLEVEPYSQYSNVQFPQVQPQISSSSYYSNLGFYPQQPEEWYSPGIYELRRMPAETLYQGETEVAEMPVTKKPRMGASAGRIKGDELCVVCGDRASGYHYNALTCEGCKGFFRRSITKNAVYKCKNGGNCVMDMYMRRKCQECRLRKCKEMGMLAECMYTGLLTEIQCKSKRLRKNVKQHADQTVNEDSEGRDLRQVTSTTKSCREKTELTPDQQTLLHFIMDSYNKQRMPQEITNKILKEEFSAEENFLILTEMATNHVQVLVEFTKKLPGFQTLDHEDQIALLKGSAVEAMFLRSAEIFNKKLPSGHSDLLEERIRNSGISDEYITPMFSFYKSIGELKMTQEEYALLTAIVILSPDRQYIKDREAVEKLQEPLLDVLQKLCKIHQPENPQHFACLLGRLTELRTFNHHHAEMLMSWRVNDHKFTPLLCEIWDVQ
In short: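 HEK293T cells stably expressing human FXR with an FXRE-NanoLuc reporter were treated with compounds for 24 hr at 37 °C, with 0.01% DMSO as negative control. Medium was read for luminescence after 5 min with coelenterazine. EC50 was fitted by sigmoid to concentration-response data.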

MRGPRX4 = MRGPRX4 (Homo sapiens, UniProt Q96LA9); experiment: MRGPRX4 activation, Fluo-8 Ca2+ FLIPR assay in HEK293T cells stably expressing MRGPRX4; type: cell-based; design: key to MRGPRX4 activation, Average / MRGPRX4 activation, Ave.: fluorescence change dF/F0; details: for EC50: MRGPRX4 activation, Ca2+ fluorescence, no activation in tested range reported as III, read-out: Activity (EC50 μM)
In short: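 Cells seeded overnight to >95% confluence, loaded 40-60 min at room temperature with 2 μM Fluo-8 AM, then kept in HHBS. Baseline read 30 s, compound added, signal followed 150 s more.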

[1] = FXR activation, HEK293T FXRE-NanoLuc reporter, 24 hr

MRGPRX4, sequence (Q96LA9 whole entry): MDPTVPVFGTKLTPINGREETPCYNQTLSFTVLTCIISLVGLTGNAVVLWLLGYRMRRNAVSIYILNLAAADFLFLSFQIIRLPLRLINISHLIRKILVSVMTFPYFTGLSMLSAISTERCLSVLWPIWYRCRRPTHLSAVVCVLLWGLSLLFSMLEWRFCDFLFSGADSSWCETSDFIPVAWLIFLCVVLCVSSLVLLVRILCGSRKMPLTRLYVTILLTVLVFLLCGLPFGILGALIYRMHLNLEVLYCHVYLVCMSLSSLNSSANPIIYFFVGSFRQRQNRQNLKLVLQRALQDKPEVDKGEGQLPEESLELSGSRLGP

| SMILES | Efficacy (maximum measured induction of NanoLuc, normalized to CDCA set as 100%) (human FXR (NR1H4); [1]) | EC50 (human FXR (NR1H4); [1]) [µM] | MRGPRX4 activation, Average (MRGPRX4; E3-9, Conc. (Log[M]) −4.0) | MRGPRX4 activation, Average (MRGPRX4; E3-9, Conc. (Log[M]) −4.5) | MRGPRX4 activation, Average (MRGPRX4; E3-9, Conc. (Log[M]) −5.0) | MRGPRX4 activation, Average (MRGPRX4; E3-9, Conc. (Log[M]) −5.4) | MRGPRX4 activation, Average (MRGPRX4; E3-9, Conc. (Log[M]) −5.9) | MRGPRX4 activation, Average (MRGPRX4; E3-9, Conc. (Log[M]) −6.4) | MRGPRX4 activation, Average (MRGPRX4; E3-9, Conc. (Log[M]) −6.9) | MRGPRX4 activation, Average (MRGPRX4; E3-9, Conc. (Log[M]) −7.3) | MRGPRX4 activation, Average (MRGPRX4; E3-9, Conc. (Log[M]) −7.8) | MRGPRX4 activation, Average (MRGPRX4; E3-9, Conc. (Log[M]) −8.3) | EC50 (MRGPRX4) [µM] | MRGPRX4 activation, Ave. (MRGPRX4; E3-7, Conc. (Log[M]) −4) | MRGPRX4 activation, Ave. (MRGPRX4; E3-7, Conc. (Log[M]) −4.5) | MRGPRX4 activation, Ave. (MRGPRX4; E3-7, Conc. (Log[M]) −5) | MRGPRX4 activation, Ave. (MRGPRX4; E3-7, Conc. (Log[M]) −5.5) | MRGPRX4 activation, Ave. (MRGPRX4; E3-7, Conc. (Log[M]) −6) | MRGPRX4 activation, Ave. (MRGPRX4; E3-7, Conc. (Log[M]) −7) | also measured |
| --- | --- | --- | --- | --- | --- | --- | --- | --- | --- | --- | --- | --- | --- | --- | --- | --- | --- | --- | --- | --- |
| CCOC(=O)C(=O)NCC[C@@H](C)[C@H]1CC[C@H]2[C@@H]3[C@H](O)[C@H](CC)[C@@H]4CCCC[C@]4(C)[C@H]3CC[C@]12C [compound 53] | C (100%<efficacy <=300%) | < 1 | 0.030 | 0.016 | 0.013 | 0.020 | 0.011 | 0.013 | 0.013 | 0.013 | 0.008 | 0.011 | > 100 | – | – | – | – | – | – | – |
| CC[C@H]1[C@@H](O)[C@@H]2[C@H](CC[C@]3(C)[C@@H]([C@H](C)CCC(=O)O)CC[C@@H]23)[C@@]2(C)CC[C@H](F)C[C@@H]12 [1-1] | C (100%<efficacy <=300%) | 1 to 10 | – | – | – | – | – | – | – | – | – | – | > 100 | – | – | – | – | – | – | – |
| [2H]C1CC[C@@]2(C)[C@@H](C1)[C@@H](CC)[C@@H](O)[C@@H]1[C@@H]2CC[C@]2(C)[C@@H]([C@H](C)CCNC(=O)NS(=O)(=O)c3ccc(C(C)(C)CF)cc3)CC[C@@H]12 (some centres unmarked) [13-2] | A (efficacy >400%) | < 1 | – | – | – | – | – | – | – | – | – | – | > 100 | −0.054 | −0.054 | −0.027 | −0.027 | −0.027 | 0.000 | – |
| [2H]C1([2H])CC[C@@]2(C)[C@@H](C1)[C@@H](CC)[C@@H](O)[C@@H]1[C@@H]2CC[C@]2(C)[C@@H]([C@H](C)CCNC(=S)NS(=O)(=O)c3cccs3)CC[C@@H]12 [14-4] | – | < 1 | 0.061 | 0.020 | 0.013 | 0.018 | 0.013 | 0.020 | 0.015 | 0.015 | 0.008 | 0.015 | > 100 | – | – | – | – | – | – | Efficacy (maximum measured induction of NanoLuc, normalized to CDCA set as 100%) (human FXR (NR1H4)): C (key: A: efficacy >400%; B: 300%<efficacy <=400%; C: 100%<efficacy <=300%; D: efficacy <=100%) |
| [2H]C1([2H])CC[C@@]2(C)[C@@H](C1)[C@@H](CC)[C@@H](O)[C@@H]1[C@@H]2CC[C@]2(C)[C@@H]([C@H](C)CCNC(=O)NS(=O)(=O)c3ccc(C(C)(C)CF)cc3)CC[C@@H]12 [12-2] | A (efficacy >400%) | < 1 | – | – | – | – | – | – | – | – | – | – | > 100 | 0.000 | −0.041 | −0.041 | −0.054 | −0.041 | −0.027 | – |
| CC[C@H]1[C@@H](O)[C@@H]2[C@H](CC[C@]3(C)[C@@H]([C@H](C)CCNC(=O)NS(=O)(=O)c4cc(F)cc(F)c4)CC[C@@H]23)[C@@]2(C)CCCC[C@@H]12 [5-24] | B (300%<efficacy <=400%) | < 1 | – | – | – | – | – | – | – | – | – | – | – | – | – | – | – | – | – | MRGPRX4 activation, fluorescence change (dF/F0), Average (MRGPRX4; Conc. (Log[M]) −4.0): 0.021; MRGPRX4 activation, fluorescence change (dF/F0), Average (MRGPRX4; Conc. (Log[M]) −4.5): 0.012; MRGPRX4 activation, fluorescence change (dF/F0), Average (MRGPRX4; Conc. (Log[M]) −5.0): 0.021; MRGPRX4 activation, fluorescence change (dF/F0), Average (MRGPRX4; Conc. (Log[M]) −5.4): 0.019; MRGPRX4 activation, fluorescence change (dF/F0), Average (MRGPRX4; Conc. (Log[M]) −5.9): 0.011; MRGPRX4 activation, fluorescence change (dF/F0), Average (MRGPRX4; Conc. (Log[M]) −6.4): 0.013; MRGPRX4 activation, fluorescence change (dF/F0), Average (MRGPRX4; Conc. (Log[M]) −6.9): 0.013; MRGPRX4 activation, fluorescence change (dF/F0), Average (MRGPRX4; Conc. (Log[M]) −7.3): 0.013; MRGPRX4 activation, fluorescence change (dF/F0), Average (MRGPRX4; Conc. (Log[M]) −7.8): 0.008; MRGPRX4 activation, fluorescence change (dF/F0), Average (MRGPRX4; Conc. (Log[M]) −8.3): 0.011 |

Source: patent US20260116910A1, “POLYCYCLIC COMPOUNDS AND METHODS THEREOF” (HEPAITECH (BEIJING) BIOPHARMA TECHNOLOGY CO., LTD., priority 2021, published 2026)
